Assay results as given in ChEMBL document CHEMBL6114998, “Design, Synthesis, and Pharmacological Evaluation of Quinazoline and Quinoline Derivatives as Potent ENPP1 Inhibitors for Cancer Immunotherapy” (J Med Chem, 2025).
Active and inactive are the calls of the source. The calls are words filed in the database; no cut-off is given here.

Legend:
CT26 [1] = test: Antitumor activity against mouse CT26 cells allografted in female BALB/c mouse assessed as increase in infiltration of CD8+T cells in tumor tissue at 200 mg/kg QD, ip in presence of anti-PD-L1 antibody measured every 2 days for 12 days by immunohistochemical analysis; assay type: functional, organism-based; conditions: time 12.0 day
THP-1 = test: Activation of STING signalling pathway in human THP-1 cells assessed as increase in IRF3 phosphorylation at 300 nM preincubated with compound for 2 hrs followed by cGAMP addition and measured after 3 hrs by Western blot analysis; assay type: cell-based; conditions: filed as activator, time 5.0 hrs
[2] = Half life in Sprague-Dawley rat at 10 mg/kg, iv measured upto 24 hrs by LC-MS/MS analysis; assay type: ADME, organism-based; conditions: in vivo
[3] = AUC(0 to t) in Sprague-Dawley rat at 10 mg/kg, iv measured upto 24 hrs by LC-MS/MS analysis; assay type: ADME, organism-based; conditions: in vivo
Homo sapiens = species: Homo sapiens; test: Inhibition of TLK (unknown origin) at 1 uM by KINOMEscan assay
THP1-Dual KO-STING [4] = test: Cytotoxicity against human THP1-Dual KO-STING cells assessed as effect on cell viability at 1 uM followed by addition of conditioned medium containing 36 hrs compound pretreated human MDA-MB-231 cells measured after 24 hrs by celltiter-glo assay; assay type: functional, cell-based; conditions: time 60.0 hrs
CT26 [5] = test: Antitumor activity against mouse CT26 cells allografted in female BALB/c mouse assessed as increase in M1-type macrophages in tumor tissue at 200 mg/kg QD, ip in presence of anti-PD-L1 antibody measured every 2 days for 12 days by immunofluorescence analysis; assay type: functional, organism-based; conditions: time 12.0 day
CT26 [6] = test: Antitumor activity against mouse CT26 cells allografted in female BALB/c mouse assessed as increase in infiltration of CD8+T cells in tumor tissue at 200 mg/kg QD, ip measured every 2 days for 12 days by immunohistochemical analysis; assay type: functional, organism-based; conditions: time 12.0 day
CT26 [7] = test: Antitumor activity against mouse CT26 cells allografted in female BALB/c mouse assessed as increase in CD8+T cells in tumor tissue at 200 mg/kg QD, ip measured every 2 days for 12 days by immunofluorescence analysis; assay type: functional, organism-based; conditions: time 12.0 day
CT26 [8] = test: Antitumor activity against mouse CT26 cells allografted in female BALB/c mouse assessed as increase in CD8+T cells in tumor tissue at 200 mg/kg QD, ip in presence of anti-PD-L1 antibody measured every 2 days for 12 days by immunofluorescence analysis; assay type: functional, organism-based; conditions: time 12.0 day
[9] = biological target: T1, Ectonucleotide pyrophosphatase/phosphodiesterase family member 1 (Homo sapiens, UniProt P22413); test: Inhibition of ENPP1 in human MDA-MB-231 cells using p-NPh-5TMP as substrate at pH 9.5 measured after 60 mins; assay type: cell-based
T1 sequence (P22413 whole entry): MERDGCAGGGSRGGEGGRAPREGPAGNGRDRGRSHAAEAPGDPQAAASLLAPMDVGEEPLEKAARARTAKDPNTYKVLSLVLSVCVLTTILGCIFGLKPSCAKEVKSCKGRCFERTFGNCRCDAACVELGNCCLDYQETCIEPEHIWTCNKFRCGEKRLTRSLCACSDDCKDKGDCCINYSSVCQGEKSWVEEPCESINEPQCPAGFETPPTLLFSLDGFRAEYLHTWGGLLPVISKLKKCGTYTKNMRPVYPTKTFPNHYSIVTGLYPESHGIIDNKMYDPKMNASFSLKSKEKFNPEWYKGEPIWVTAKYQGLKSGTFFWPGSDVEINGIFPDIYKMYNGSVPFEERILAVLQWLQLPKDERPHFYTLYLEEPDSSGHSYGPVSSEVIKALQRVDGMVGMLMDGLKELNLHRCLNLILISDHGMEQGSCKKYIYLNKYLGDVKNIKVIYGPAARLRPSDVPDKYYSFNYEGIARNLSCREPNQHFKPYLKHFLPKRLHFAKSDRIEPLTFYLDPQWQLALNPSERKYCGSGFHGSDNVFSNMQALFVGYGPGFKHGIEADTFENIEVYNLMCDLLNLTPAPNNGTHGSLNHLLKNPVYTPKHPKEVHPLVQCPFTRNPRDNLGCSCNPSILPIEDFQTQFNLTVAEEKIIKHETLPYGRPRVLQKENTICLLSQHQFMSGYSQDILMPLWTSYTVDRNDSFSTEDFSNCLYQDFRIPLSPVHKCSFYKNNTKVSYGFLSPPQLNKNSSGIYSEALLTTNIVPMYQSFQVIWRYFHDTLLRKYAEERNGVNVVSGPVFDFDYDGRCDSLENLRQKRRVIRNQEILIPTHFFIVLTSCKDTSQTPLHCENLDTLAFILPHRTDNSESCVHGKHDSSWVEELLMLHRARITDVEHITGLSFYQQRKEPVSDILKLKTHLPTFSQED

[10] = Apparent permeability across basal to apical side in human Caco-2 cells at 10 uM by LC-MS/MS analysis; assay type: ADME, cell-based
[11] = Toxicity in female BALB/c mouse allografted with mouse CT26 cells assessed as change in body weight at 200 mg/kg QD, ip in presence of anti-PD-L1 antibody measured every 2 days for 12 days; assay type: organism-based; conditions: in vivo, 288 h, time 12 day
THP1-Dual = test: Cytotoxicity against human THP1-Dual cells assessed as effect on cell viability at 3 to 1000 nM followed by addition of conditioned medium containing 36 hrs compound pretreated human MDA-MB-231 cells measured after 24 hrs by celltiter-glo assay; assay type: functional, cell-based; conditions: dose 3-1000 nM, time 60.0 hrs
[12] = MRT (0 to t) in Sprague-Dawley rat at 10 mg/kg, iv measured upto 24 hrs by LC-MS/MS analysis; assay type: ADME, organism-based; conditions: in vivo
[13] = biological target: T1, Ectonucleotide pyrophosphatase/phosphodiesterase family member 1; test: Inhibition of recombinant human ENPP1 transfected in HEK293T cells using cGAMP as substrate at pH 7.5 measured after 3.5 hrs by luminescence based AMP-glo assay; assay type: cell-based
THP1-Dual KO-STING [14] = test: Activation of STING-mediated immune response in human THP1-Dual KO-STING cells assessed as cGAMP-induced ISRE activation at 1 uM preincubated with conditioned medium containing 36 hrs compound treated with human MDA-MB-231 cells and measured after 24 hrs by quanti-luc luciferase assay; assay type: cell-based; conditions: filed as activator, time 60.0 hrs
[15] = Efflux ratio of apparent permeability from basolateral to apical side over apical to basolateral side in human Caco-2 cells at 10 uM by LC-MS/MS analysis; assay type: ADME, cell-based
CT26 [16] = test: Antitumor activity against mouse CT26 cells allografted in female BALB/c mouse plasma assessed as increase in IP-10 secretion in tumor tissue at 200 mg/kg QD, ip in presence of anti-PD-L1 antibody measured every 2 days for 12 days by ELISA analysis; assay type: functional, organism-based; conditions: time 12.0 day
CT26 [17] = test: Antitumor activity against mouse CT26 cells allografted in female BALB/c mouse assessed as tumor growth inhibition at 200 mg/kg QD, ip measured every 2 days for 12 days relative to control; assay type: functional; conditions: CT26, 288 h, time 12 day, read-out: TGI
CT26 [18] = test: Antitumor activity against mouse CT26 cells allografted in female BALB/c mouse assessed as decrease in M2-type macrophages in tumor tissue at 200 mg/kg QD, ip in presence of anti-PD-L1 antibody measured every 2 days for 12 days by immunohistochemical analysis; assay type: functional, organism-based; conditions: time 12.0 day
[19] = Apparent permeability across apical to basal side in human Caco-2 cells at 10 uM by LC-MS/MS analysis; assay type: ADME, cell-based

half-life [2]: 46.7 min
AUC(0-t) at 24 h [3]: 2030 ng·h/mL
inhibition (Homo sapiens): inactive
IC50 [9]: 1.53 nM
Papp B→A at 10 µM [10]: 2.13 ×10⁻⁶ cm/s
MRT last at 24 h [12]: 39.7 min
IC50 [13]: 8.05 nM
efflux ratio at 10 µM [15]: 20.1
Papp A→B at 10 µM [19]: 0.106 ×10⁻⁶ cm/s
Structure (SMILES): COc1cccc2c(N3CCC(O)(CNS(N)(=O)=O)CC3)ncnc12
Activity (CT26 [1]): Active
Activity (THP-1): Active
Activity (THP1-Dual KO-STING [4]): Active
Activity (CT26 [5]): Active
Activity (CT26 [6]): Active
Activity (CT26 [7]): Active
Activity (CT26 [8]): Active
Activity [11]: Non-toxic
Activity (THP1-Dual): Active
Activity (THP1-Dual KO-STING [14]): Active
Activity (CT26 [16]): Active
inhibition in vivo at 200 mg/kg (CT26 [17]): 39.9%
Activity (CT26 [18]): Active
